The text below walks through data of patent publication US20050282818A1, “Ubiquitin ligase inhibitors” (Rigel Pharmaceuticals, Inc., priority 2004, published 2005).

Some results are limits rather than exact numbers.

For one assay, the system named is HELA cells. The assay is described as follows: Cell proliferation PAD assay, HeLa. Particulars: Homo sapiens, 6pt, 48 hours. Type of assay: cell-based. The text has this: (§1) Table 3 illustrates the inhibitory activity of the compounds of the invention determined by the PAD assay described above in a number of cell types. Apoptosis was not
(§2) Cell lines used are available from American Type Culture Collection (ATCC), for example, cell cultures containing A549 (ATCC# CCL-185), HeLa (ATCC# CCL-2), HCT116 ATTC# CCL-247), and H1299 (ATCC# CRL-5803) cells were maintained in T175 flasks following the ATCC recommended media and handling procedures. […] A 20,000 cells/ml solution was made for plating. Cells were plated in black Packard 96 well plates by placing 100 μl per well (2,000 cells per well). […] The definitions of the cell types used are as follows: A549 is lung carcinoma; HI 299 is non-small cell lung carcinoma; HI 155 is non-small cell lung carcinoma; AsPC-1 is pancreatic adenocarcinoma; Caov-3 is ovarian adenocarcinoma; COLO 205 is colorectal adenocarcinoma; DLD-1 colorectal adenocarcinoma; HCT116 is colorectal carcinoma; DU 145 is prostate carcinoma; ES-2 is ovarian clear cell carcinoma; H460 is large cell lung carcinoma; HELA is cervical adenocarcinoma; MIA PaCa-2 is pancreatice carcinoma; OVCAR-3 is ovarian adenocarcinoma; OVCAR8 is ovarian carcinoma; PC3 is prostate adenocarcinoma; SK-OV-3 is ovarian adenocarcinoma; SU86.86 is pancreatic carcinoma; TOV-21G is avarian clear cell carcinoma; U2OS is bone osteosarcoma; is ASPC-I is pancreatic adenocarcinoma; BXPC-3 is pabcreatic adenocarcinoma; HL60 is promyeloblast promyelocytic leukemia; K562 is bone marrow chronic myelogenous leukemia; L1210 is mouse lymphocytic leukemia; MOLT3 is T lymphoblast acute lymphoblastic leukemia; MOLT4 is T lymphoblast acute lymphoblastic leukemia; SW620 is colorectal adenocarcinoma; THP-1 is monocyte acute monocytic leukemia; U937 is histiocytic lymphoma; and UACC-257 is melanoma.
(§3) Compounds and additional media were added 24 hours after cell plating. A compound master plate was created with concentrations 500 times greater than the final concentration added to the cells. All compound testing was done in duplicate using 6.3 fold dilutions starting with 10 mM. All outside wells (and 4 internal wells) were DMSO controls. Taxol and at least one additional control were run on all plates. Three microliters of the compound master plate were added to deep well blocks containing 750 μl of RPMI media. One hundred microliters were transferred from the compound/media deep well blocks to the plated cells resulting in a 500 fold dilution of the compounds. Cells were grown at 37° C., 5% CO2 for 48 hours.
(§4) Cells to be analyzed by photography were fixed and stained. One hundred microliters of media were removed and 100 μl of 9.3% formamide was added to each well. Plates were left on the benchtop for 45 minutes. A staining solution containing 1.55 μl of 1 mg/ml DAPI added to 18.75 ml PBS was warmed for 15 minutes at 37° C. The cells were aspirated prior to washing with 100 μl of PBS. Seventy microliters of PBS were aspirated and 170 μl of the DAPI solution were added to each well of fixed cells. Plates were left at room temperature for one hour then aspirated and washed twice with 100 μl of PBS. The stained cells were left at 4° C. for a minimum of 16 hours before photographic analysis with Array Scan II (Cellomics). Analysis of the photographic images to determine numbers of live cells (proliferation), apoptotic cells and dead cells, were according to the methods described in U.S. Utility patent application Ser. No. 10/652,440, which incorporated herein in its entirety.

For the next assay, the system named is U2OS cells. Nature of the assay: Cell proliferation PAD assay, U2OS. Type of assay: cell-based. The following applies: Homo sapiens, 6pt, 48 hours.
Text: as §1, §2, §3, §4

In the next assay the test system is DLD-1 cells. Nature of the assay: Cell proliferation PAD assay, DLD-1. Type of assay: cell-based. Particulars: Homo sapiens, DLD1 cells, 6pt, 48 hours.
Text: as §1, §2, §3, §4

The next assay concerns the target T1, ROC1/CUL1 (Homo sapiens, UniProt P62877+Q13616).
T1 construct: made in house
The assay is described as follows: ROC1/CUL1 ubiquitin ligase assay (SCF assay). Type of assay: biochemical. The procedure, abridged:
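His-ROC1/CUL1 (100 ng/well) with E1 (5 ng/well), UbcH5c E2 (25 nl/well) and Flag-ubiquitin (100 ng) on nickel-coated plates; the reaction solution held Tris pH 7.5, MgCl2, DTT and 2.5 mM ATP. Compounds were added and the reaction ran 1 h at RT. Bound ubiquitin was read by anti-Flag/HRP luminescence, giving IC50 across compound concentrations.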

The subject of the next assay is OVCAR8 cells. Nature of the assay: Cell proliferation PAD assay, OVCAR8. Type of assay: cell-based. The following applies: Homo sapiens, OVCAR-8, 6pt, 48 hours. The procedure, abridged: (§5)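 Each line, seeded at 2,000 cells/well, received duplicate 6.3-fold compound dilutions (10 mM stock, diluted 500× into medium) one day after plating. Exposure lasted 48 h; fixed cells were DAPI-stained and photographed, and images were analysed for live, apoptotic and dead cell numbers.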

In another assay the test system is UACC-257 cells. The assay is described as follows: Cell proliferation PAD assay, UACC-257. Type of assay: cell-based. The following applies: Homo sapiens, UACC257 cells, 6pt, 48 hours. The procedure, abridged:
as §5

T1 sequence (P62877 whole entry): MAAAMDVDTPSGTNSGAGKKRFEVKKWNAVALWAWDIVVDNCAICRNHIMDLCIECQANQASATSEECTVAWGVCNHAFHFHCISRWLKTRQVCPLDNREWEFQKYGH
T1 sequence (Q13616 whole entry): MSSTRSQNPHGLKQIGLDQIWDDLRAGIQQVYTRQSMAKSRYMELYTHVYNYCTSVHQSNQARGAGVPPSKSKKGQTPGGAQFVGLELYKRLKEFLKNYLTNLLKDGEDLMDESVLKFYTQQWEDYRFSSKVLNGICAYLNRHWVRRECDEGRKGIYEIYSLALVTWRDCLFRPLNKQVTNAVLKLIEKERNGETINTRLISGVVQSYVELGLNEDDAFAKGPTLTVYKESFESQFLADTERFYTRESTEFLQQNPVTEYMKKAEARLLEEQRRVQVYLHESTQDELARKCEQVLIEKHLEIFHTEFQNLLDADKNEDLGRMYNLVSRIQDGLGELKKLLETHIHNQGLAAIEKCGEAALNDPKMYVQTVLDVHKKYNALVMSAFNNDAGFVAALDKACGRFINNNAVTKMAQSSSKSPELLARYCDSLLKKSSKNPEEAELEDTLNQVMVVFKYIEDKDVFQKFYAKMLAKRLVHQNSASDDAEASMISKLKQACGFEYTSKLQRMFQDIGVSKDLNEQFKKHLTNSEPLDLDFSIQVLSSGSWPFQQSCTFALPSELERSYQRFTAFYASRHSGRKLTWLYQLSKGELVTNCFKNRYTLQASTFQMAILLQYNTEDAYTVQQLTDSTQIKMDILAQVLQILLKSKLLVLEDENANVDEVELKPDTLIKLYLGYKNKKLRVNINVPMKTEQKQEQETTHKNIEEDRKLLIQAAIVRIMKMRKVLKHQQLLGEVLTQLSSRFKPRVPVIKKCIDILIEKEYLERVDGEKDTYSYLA

`O=S(=O)(Nc1ccc2cn[nH]c2c1)c1ccc(Cl)c2nonc12` [compound 220, 7-chloro-N-1 H-indazol-6-yl-2,1,3-benzoxadiazole-4-sulfonamide]: the IC50 with HELA cells, in the assay with U2OS cells and with DLD-1 cells was 1000 to 20000 nM each time.

In the case of `O=S(=O)(Oc1ccc(N2CCN(S(=O)(=O)c3ccc(Cl)c4nonc34)CC2)cc1)c1ccc(Cl)c2nonc12` [compound 171, 4-{4-[(7-chloro-2,1,3-benzoxadiazol-4-yl)sulfonyl]piperazin-1-yl}phenyl 7-chloro-2,1,3-benzoxadiazole-4-sulfonate], the IC50 with U2OS cells is below 1000 nM.

Consider `Cc1cc(C)cc(-c2ccc([N+](=O)[O-])c3nonc23)c1` [compound 286, 4-(3,5-Dimethylphenyl)-7-nitro-2,1,3-benzoxadiazole], for which the IC50 in the assay with HELA cells was 1000 to 20000 nM; in the assay on U2OS cells, below 1000 nM; in the assay on DLD-1 cells it was 1000 to 20000 nM.

On to `O=c1[nH]c2ccccc2n1C1CCN(S(=O)(=O)c2ccc(Cl)c3nonc23)CC1` [compound 188, 1-{1-[(7-chloro-2,1,3-benzoxadiazol-4-yl)sulfonyl]piperidin-4-yl}-1,3-dihydro-2H-benzimidazol-2-one], for which, in the assay with U2OS cells, the IC50 was below 1000 nM.

For the molecule `COC(=O)c1ccc(NS(=O)(=O)c2ccc(F)c3nonc23)cc1` [compound 167, methyl 4-{[(7-fluoro-2,1,3-benzoxadiazol-4-yl)sulfonyl]amino}benzoate], the IC50 with U2OS cells was below 1000 nM.

As to `O=[N+]([O-])c1ccc(SCCO)c2nonc12` [compound 150, 2-[(7-nitro-2,1,3-benzoxadiazol-4-yl)thio]ethanol], the IC50 in the assay on HELA cells, in the assay on U2OS cells and in the assay on DLD-1 cells was below 1000 nM in each case.

In the case of `COC(=O)c1ccc(NS(=O)(=O)c2c(Cl)ccc3nonc23)cc1` [compound 178, methyl 4-{[(5-chloro-2,1,3-benzoxadiazol-4-yl)sulfonyl]amino}benzoate], the IC50 with HELA cells, with U2OS cells and with DLD-1 cells was below 1000 nM in each case.

Take `CC1(C)CCN(S(=O)(=O)c2c(Cl)ccc3nonc23)CC1` [compound 245, 5-chloro-4-[(4,4-dimethylpiperidin-1-yl)sulfonyl]-2,1,3-benzoxadiazole]: the IC50 against ROC1/CUL1 and with HELA cells was at least 20000 nM in each case.

Molecule `CC(=O)N1CCN(S(=O)(=O)c2c(Cl)ccc3nonc23)CC1` [compound 201, 4-[(4-acetylpiperazin-1-yl)sulfonyl]-5-chloro-2,1,3-benzoxadiazole] registered an IC50 with U2OS cells below 1000 nM.

Turning to `Cc1cccc(N2CCN(S(=O)(=O)c3c(Cl)ccc4nonc34)CC2)n1` [compound 202, 5-chloro-4-{[4-(6-methylpyridin-2-yl)piperazin-1-yl]sulfonyl}-2,1,3-benzoxadiazole], the IC50 in the assay on HELA cells was 1000 to 20000 nM; in the assay on U2OS cells, below 1000 nM; in the assay on DLD-1 cells it was below 1000 nM.

As for `O=S(=O)(c1c(Cl)ccc2nonc12)N1CCN(c2ncc(C(F)(F)F)cc2Cl)CC1` [compound 179, 5-chloro-4-({4-[3-chloro-5-(trifluoromethyl)pyridin-2-yl]piperazin-1-yl}sulfonyl)-2,1,3-benzoxadiazole], the half-inhibitory concentration (IC50) in the assay on HELA cells was 1000 to 20000 nM; with U2OS cells, below 1000 nM; in the assay on DLD-1 cells, 1000 to 20000 nM.

For the molecule `O=[N+]([O-])c1ccc(Oc2ccc(S(=O)(=O)Nc3cccc4nonc34)cc2Cl)c(C(F)(F)F)c1` [compound 114, N-2,1,3-benzoxadiazol-4-yl-3-chloro-4-[4-nitro-2-(trifluoromethyl)phenoxy]benzenesulfonamide], the IC50 in the assay with OVCAR8 cells and in the assay on UACC-257 cells was 1000 to 20000 nM in each case.

`O=S(=O)(Nc1cccc2nsnc12)c1ccc(Oc2ccccc2)cc1` [compound 94, N-2,1,3-benzothiadiazol-4-yl-4-phenoxybenzenesulfonamide]: the IC50 in the assay with OVCAR8 cells and in the assay on UACC-257 cells was 1000 to 20000 nM throughout.
